The source of these data is patent publication US6943000B2, “JNK3 modulators and methods of use” (priority 1997, dated 2005).

Holding throughout (format): in vivo, mouse
The test system of series [1] is c-Jun phosphorylated at Ser-73. In words: KA-induced phosphorylation of c-Jun in hippocampus (immunocytochemistry). The note with it: KA 30 mg/kg i.p., two hours after injection. As for the experimental part: To further define this phenomenon, the distribution of KA-induced c-Fos and c-Jun immunoreactivity along the synaptic circuit of the hippocampus was examined. In these experiments, homozygous mutant and control wild-type mice were killed and fixed by transcardial perfusion of 4% paraformaldehyde at 2 or 6 hours after the injection of KA (30 mg/kg, i.p.). Brains from both groups were removed, post-fixed for one hour, and sectioned on a Vibratome ([…]). Tissue sections were processed by immunocytochemistry to detect the expression of c-June (Santa Cruz, cat# sc-45), c-Fos (Santa Cruz, cat# sc-52), and phospho-specific c-Jun (Ser-73) (New England Biolabs, #9164S). Sections were floated in a solution of the primary antibody (diluted 200× in PBS) and incubated overnight at room temperature. Secondary antibody incubation, avidin-biotin conjugated peroxidase (Vectastain Elite ABC kit, Vector Lab.), and DAB (3, 3′-diaminobenzidine, Sigma) reactions were performed using standard procedures (Hsu et al., supra). In the absence of KA, there was no detectable c-Fos expression and only a few c-Jun-positive cells within the dentate gyrus. […]
In addition, there was a dynamic change of the distribution of phosphorylated c-Jun in the wild type mouse hippocampus. […] In contrast, no labeling of phosphorylated c-Jun was detected in the JNK3(−/−) mice at the same time point. […]

In series [2] the test system is hippocampal neurons. In words: Kainate-induced neuronal damage in the hippocampus (Nissl's stain, GFAP, TUNEL, toluidine stain). As for the experimental part: These experiments were performed as follows. Wild-type and JNK3 (−/−) mice were killed and fixed by transcardial perfusion of 4% paraformaldehyde and 1.5% glutaraldehyde three days after the injection of KA (30 mg/kg, i.p.). Semithin and thin sections of brain were prepared using a Vibratome and embedded in Epon. Tissue blocks were prepared using a microtome with a diamond tube for 1 μm-thick semithin sections examined by toluidine blue staining, and for ultrathin sections examined by electron microscopy. Nissl's stain was used for initial examination of damage to the hippocampus (Kluver et al., J. Neuropath. Exp. Neuro. 12:400-403, 1953). GFAP immunocytochemistry was also used to assess cell destruction in the hippocampus (Hsu et al., supra). Nissl's staining was also performed as described above. TUNEL assays, used to evaluate apoptosis, were performed using cryostat sections (50 μm) of cerebral hemispheres that were cryoprotected with sucrose. The TUNEL assay was modified from the terminal deoxynucleotidyl transferase (TdT)-mediated dUTP nick end labeling assay (Gavrieli et al., J. Cell. Biol. 119:493-501, 1992). Briefly, tissue sections, directly mounted on a salinated slide, were permeablized with 2% TRITON® X-100 (20 minutes at room temperature) and then incubated for nick end-labeling for 2 hours at 37° C. using 0.32 U/μl TdT (Boehringer Mannheim, cat# 220582) and 2 μM digoxigenin-11-dUTP (Boehringer Mannheim, cat# 1573152) in a final volume of 40 μl. The tissues were incubated with anti-digoxigenin antibody (Boehringer Mannheim, cat# 1333062) diluted 500-fold, and processed for immunocytochemistry using standard procedures (Hsu et al., supra).
The damage to the hippocampus caused by KA was initially examined by Nissl's stain. The KA-induced cell loss caused either a breach of staining of the pyramidal neurons in the CA3 region or a diffuse sparse staining throughout the CA1 subfield. […] Groups of small pyknotic nuclei and positively TUNEL-labeled cells were found in the hippocampal CA3 subfield devoid of Nissl's staining. […] Since the TUNEL method and the pyknosis morphology only indicated the extent of cell damage at one time point of a dynamic process, immunostaining of damage-induced GFAP was also used as an independent assessment of the extent of cell destruction in the hippocampus. Consistent with the patterns of Nissl's, toluidine, and TUNEL staining, an increased number of strongly GFAP-labeled astrocytes was found either in the hippocampal CA3 or CAl regions. Thus, a combination of Nissl's stain, GFAP immunocytochemistry, TUNEL method, and toluidine stain of semithin sections was used to classify the KA-induced damage in the mouse hippocampus.
A total of 17 wild-type and 18 JNK3(−/−) mice were examined. The table was compiled from two sets of data. First, wild-type (n=11) and JNK3 (−/−) (n=10) mice were sacrificed on the fifth day after a single injection of KA (30 mg/kg, i.p.). Second, wild-type (n=6) and JNK3 (−/−) (n=8) mice received an injection of KA (30 mg/kg, i. p.) for five consecutive days and examined two days following the final injection. […] The ratio of no cell loss/CA3 lesion/CA3+CA1 lesion was 2/7/2 in the single-injection experiments, and 2/2/2 in the multiple injection experiments.

Series [3] relates to AP-1 transcriptional activity. In words: KA-induced AP-1 transcriptional activity (luciferase assay, AP1-luc mice). The note with it: KA 30 mg/kg i.p. An excerpt:
Since the phosphorylation of c-Jun is an important initial event during the induction of AP-1 transcriptional activity (Whitemarsh et al., supra; Yang et al., supra), whether the observed attenuation of c-Jun phosphorylation would lead to decreased induction of AP-1 transcriptional activity in JNK3 (−/−) mice was examined. JNK(-1-) mice were crossed with transgenic AP-1 luciferase (AP1-luc) mice (Rincon et al., Embo. J. 13:4370-4381, 1994) and progeny back crossed. The JNK3(−/−)/API-Luc(−/+) mice were used in experiments with JNK3(+/+) mice to compare the level of KA-induced AP-1 transcriptional activity in the presence or absence of JNK3. The AP1-luc mice contain the firefly luciferase gene under the control of four copies of a consensus AP-1 binding site in the context of the minimal rat prolactin promoter. It has been established that the expression of luciferase in these mice is due to the presence of the AP-1 regulatory element.
In the luciferase assay, mice were sacrificed at intervals after injection of KA (30 mg/kg, i.p.), and relative luciferase activity compared with that detected in hippocampal lysates obtained from mice injected with vehicle (saline). Mice were decapitated, brains were dissected, and brain tissues were immediately lysed in buffer containing 25 mM Hepes pH 7.4, 1% TRITON®X-100, 1 mM EDTA, 1 mM phenylmethyl sulfonyl fluoride, and 10 μg/ml leupeptin (Promega, Madison, Wis.). Luciferase activity was measured as described in Rincon and Flavell (Embo. J. 13:4370-4381, 1994). The injection of KA (30 mg/kg, i.p.) caused a large induction of AP-1 transcriptional activity in the hippocampus of wild-type mice, as evidenced by the induction of luciferase activity.
The relative luciferase activity in the hippocampus and cerebellum prepared from wild-type (+/+) and JNK3 (−/−) mice was measured following KA injection. Each time point represents the mean of three to five (+SEM) individual animals. […]

Series [4] relates to hippocampal neurons. In words: Kainate-induced neuronal damage in the hippocampus (Nissl's stain, GFAP, TUNEL, toluidine stain). The settings on record: KA 45 mg/kg, JNK2(−/−) mice as printed.
Series [5] concerns mice. Briefly: KA-induced seizures in wild-type and JNK3(−/−) mice. As for the experimental part: JNK3(−/−) mice and their wild-type littermates were injected intraperitoneally (i.p.) with 30 mg/kg KA to induce seizures (Ben-Ari, supra). In wild-type mice, the administration of KA first induced “staring spells” with abnormal body posture, then progressed to head nodding (“wet-dog shakes”), fore-paw tremor, rearing, loss of postural control, and eventually, continuous convulsions. […] Wild-type and heterozygous mice developed motor symptoms of seizures, including rearing, at 30 to 40 minutes post-injection. The JNK3 (−/−) mice, in contrast, developed much milder symptoms, mainly consisting of “staring” spells and occasional myoclonic tremors. […] Further, JNK3(−/−) mice recovered from the drug administration more rapidly than wild-type mice (FIG. 7). Seizure classifications as shown in FIGS. 7 and 8 are: 1, arrest of motion; 2, myoclonic jerks of the head and neck, with brief twitching movements; 3, unilateral clonic activity; 4, bilateral forelimb tonic and clonic activity; and 5, generalized tonic-clonic activity with loss of postural tone, often resulting in death.

Series [6] relates to mice. Briefly: Pentetrazole (PTZ)-induced seizures in wild-type and JNK3(−/−) mice. An excerpt:
Since the resistance to KA-induced seizures varied between littermates (+/+ and +/− are less resistant than −/− mice), the observed differential susceptibility cannot be attributed to a difference between mouse strains (Schauwecker and Steward, Proc. Nat. Acad. Sci. USA 94:4103-4108, 1997). However, the resistance of JNK3 deficient mice to KA-induced seizures could be due to decreased drug penetration across the blood-brain barrier or an increased GABA (gamma-aminobutyric acid) inhibitory postsynaptic potential (IPSP), or the ablation of a specific signal transduction pathway mediated by the JNK3 protein kinase. To distinguish between these possibilities, the response of JNK3 (−/−) and wild-type mice to another epileptogenic agent, pentetrazole (PTZ) (Sigma), was examined. PTZ was selected due to its ability to induce seizures by blocking the GABA-IPSPs (Ben-Ari et al., Neurosci. 6:1361-1391, 1981).
Thus, the differential susceptibility to KA toxicity in JNK3(−/−) mice can neither be explained as a consequence of poor drug delivery to the nervous system nor by potent GABA-IPSPs in the neural circuit. Furthermore, we examined the expression of the kainate-type glutamate receptor subunits GluR5-7 (Pharmingen cat. No. 60006E) by immunocytochemistry using standard methods.

The mark [7] stands for this setting: KA 30 mg/kg i.p., JNK3 genotype +/+.
The mark [8] stands for this setting: KA 30 mg/kg i.p., JNK3 genotype −/−.
Where [9] appears, read: KA 30 mg/kg i.p., wild-type mice.

As to `C=C(C)[C@H]1CN[C@H](C(=O)O)[C@H]1CC(=O)O` [KA, kainic acid], the “phosphorylated c-Jun in hippocampus” value in series [1] (JNK3(−/−) mice) is recorded as “only a trace amount”. The “phosphorylated c-Jun in the dentate gyrus and CA3/CA4 region of the hippocampus” value in series [1] (wild-type mice) is on record as “high level of phosphorylated c-Jun”. Also, in the series with hippocampal neurons [2] (KA 30 mg/kg i.p., JNK3(−/−) mice (n=18)), the hippocampal damage entry is reported as “no apparent hippocampal damage”. For the same compound, in the series with hippocampal neurons [2] (setting [7]), the “Including CA1 cell loss” value is given as 4 number of animals, the “No perceivable cell loss” value is on record as 4 number of animals and the “Selective CA3 cell loss” value was 9 number of animals. In the series with hippocampal neurons [2] (setting [8]), the “Including CA1 cell loss” value was 0 number of animals, the “No perceivable cell loss” value was 18 number of animals and the “Selective CA3 cell loss” value was 0 number of animals. Besides, in the series on hippocampal neurons [2] (setting [9]), the “animals with damage of the hippocampal CA3 region” value is on record as 53%, the “animals with damage of the hippocampal CA3 region (fraction)” value was 9/17, the “animals with massive cell loss throughout the entire hippocampal CA1 region” value is 24% and the “animals with massive cell loss throughout the entire hippocampal CA1 region (fraction)” value is 4/17. In addition, the “ratio of no cell loss/CA3 lesion/CA3+CA1 lesion” value in the series with hippocampal neurons [2] (wild-type mice, KA 30 mg/kg i.p. for five consecutive days, examined two days after final injection) was 2/2/2. For the same compound, the “ratio of no cell loss/CA3 lesion/CA3+CA1 lesion” value with hippocampal neurons [2] (wild-type mice, single injection of KA 30 mg/kg i.p., sacrificed on the fifth day) was 2/7/2. For the same compound, the “AP-1 activity in hippocampus, wild-type compared with JNK3(−/−) mice” value in series [3] (15 hours after injection) is given as “approximately four-fold greater”. Moreover, in series [3] (three days after injection), the “AP-1 activity in hippocampus, wild-type compared with JNK3(−/−) mice” value is “more than six times higher”. For the same compound, the “time of peak luciferase activity in hippocampus” value in series [3] (wild-type AP1-luc mice) was “three days”. Besides, the “animals with cell damage (fraction)” value in the series with hippocampal neurons [4] is 2/15. Further, the “animals with cell damage” value with hippocampal neurons [4] (p<0.005) is on record as 13%. For the same compound, the seizure severity entry with mice [5] (KA 30 mg/kg i.p., JNK3(−/−) mice) is on record as “did not develop grand mal seizures”. Further, the “time at which seizure activities subsided” value with mice [5] (setting [9]) was “one hour after injection”. In addition, in the series with mice [5] (KA 45 mg/kg i.p., JNK3(−/−) mice), the survival result is “all of the JNK3(−/−) mice survived”. In the series on mice [5] (KA 45 mg/kg i.p., wild-type mice), the “mice that died from continuous tonic clonic convulsions” value is “more than 60%”.
As for `C1CCc2nnnn2CC1` [PTZ, pentetrazole], in the series with mice [6] (PTZ 30, 40, 50, 60 mg/kg i.p.), the “seizure severity, JNK3(−/−) mice versus wild-type littermates” value is on record as “comparable severity”. The “time to abrupt general tonic-clonic seizures after injection” value in the series with mice [6] (PTZ i.p.) was “within five minutes”.
